Type in all cases: functional
One assay relates to Streptococcus pneumoniae. Nature of the assay: Antibacterial activity against Streptococcus pneumoniae. To be noted: Streptococcus pneumoniae; read-out: MIC.
The test system of assay [1] is Staphylococcus aureus. Nature of the assay: Antibacterial activity against penicillin G susceptible Staphylococcus aureus. To be noted: Staphylococcus aureus; read-out: MIC.
Assay [2] has as its system Escherichia coli. In words: Antibacterial activity against Escherichia coli TEM. The note with it: Escherichia coli; read-out: MIC.
The subject of assay [3] is Enterobacter cloacae. Nature of the assay: Antibacterial activity against Enterobacter cloacae EB5. The note with it: Enterobacter cloacae; read-out: MIC.
For assay [4], the system named is Enterobacter cloacae. Nature of the assay: Antibacterial activity against Enterobacter cloacae 265A. The note with it: Enterobacter cloacae; read-out: MIC.
For another assay, the system named is Enterococcus faecium. Nature of the assay: Antibacterial activity against Enterococcus faecium. The note with it: Enterococcus faecium; read-out: MIC.
For assay [5], the system named is Pseudomonas aeruginosa. Nature of the assay: Antibacterial activity against Pseudomonas aeruginosa X528. To be noted: Pseudomonas aeruginosa; read-out: MIC.
Assay [6] has as its system Pseudomonas aeruginosa. Nature of the assay: Antibacterial activity against Pseudomonas aeruginosa PS18. The note with it: Pseudomonas aeruginosa; read-out: MIC.
The subject of assay [7] is Klebsiella pneumoniae. Nature of the assay: Antibacterial activity against Klebsiella pneumoniae X26. The note with it: Klebsiella pneumoniae; read-out: MIC.
In assay [8] the test system is Escherichia coli. In words: Antibacterial activity against Escherichia coli EC14. To be noted: Escherichia coli; read-out: MIC.
Assay [9] relates to Klebsiella pneumoniae. In words: microbe, parasite or virus in culture. The note with it: Klebsiella pneumoniae; read-out: MIC.
Description: Antibacterial activity against Klebsiella pneumoniae 1082E
The next assay has as its system Serratia marcescens. Nature of the assay: Antibacterial activity against Serratia marcescens SE3. To be noted: Serratia marcescens; read-out: MIC.
The test system of another assay is Streptococcus pyogenes. In words: Antibacterial activity against Streptococcus pyogenes. To be noted: Streptococcus pyogenes; read-out: MIC.
In assay [10] the test system is Staphylococcus aureus. Nature of the assay: Antibacterial activity against penicillin G resistance Staphylococcus aureus. The note with it: Staphylococcus aureus; read-out: MIC.

Values after ≈ are worked out from the molar mass of the structure shown. A value given as a limit tells only on which side of the number the result lay.

As to `CO/N=C(\C(=O)N[C@@H]1C(=O)N2C(C(=O)[O-])=C(C[n+]3cccc4c3CCCC4)CS[C@H]12)c1csc(N)n1` [CEFQUINOME], the MIC in the assay with Streptococcus pneumoniae was determined as 0.015 µg/mL (≈ 0.0284 µM); in the assay with Staphylococcus aureus [1], 1 µg/mL (≈ 1.89 µM); in the assay with Escherichia coli [2], 0.03 µg/mL (≈ 0.0568 µM); in the assay with Enterobacter cloacae [3], 0.125 µg/mL (≈ 0.236 µM); in the assay with Enterobacter cloacae [4], 2 µg/mL (≈ 3.78 µM); in the assay on Enterococcus faecium, 128 µg/mL (≈ 242 µM). In addition, the MIC turned out to be 4 µg/mL (≈ 7.57 µM) with Pseudomonas aeruginosa [5]; 16 µg/mL (≈ 30.3 µM) in the assay with Pseudomonas aeruginosa [6]; 0.03 µg/mL (≈ 0.0568 µM) in the assay on Klebsiella pneumoniae [7]; 0.03 µg/mL (≈ 0.0568 µM) in the assay with Escherichia coli [8]; 4 µg/mL (≈ 7.57 µM) in the assay with Klebsiella pneumoniae [9]; 0.125 µg/mL (≈ 0.236 µM) with Serratia marcescens. In addition, the MIC is below 0.008 µg/mL in the assay on Streptococcus pyogenes and 2 µg/mL (≈ 3.78 µM) with Staphylococcus aureus [10].
Consider `CO/N=C(\C(=O)N[C@@H]1C(=O)N2C(C(=O)[O-])=C(C[n+]3ccc(Cl)cc3)CS[C@H]12)c1csc(N)n1`, for which the MIC in the assay on Streptococcus pneumoniae is 0.03 µg/mL (≈ 0.0589 µM); in the assay on Staphylococcus aureus [1], 2 µg/mL (≈ 3.93 µM); in the assay on Escherichia coli [2], 0.03 µg/mL (≈ 0.0589 µM); with Enterobacter cloacae [3], 0.25 µg/mL (≈ 0.491 µM); in the assay on Enterobacter cloacae [4] it was 32 µg/mL (≈ 62.9 µM); in the assay with Enterococcus faecium, above 128 µg/mL. For the same molecule, the MIC in the assay with Pseudomonas aeruginosa [5] worked out at 4 µg/mL (≈ 7.86 µM); in the assay on Pseudomonas aeruginosa [6], 16 µg/mL (≈ 31.4 µM); in the assay with Klebsiella pneumoniae [7] it was 0.03 µg/mL (≈ 0.0589 µM); in the assay with Escherichia coli [8], 0.06 µg/mL (≈ 0.118 µM); in the assay with Klebsiella pneumoniae [9], 16 µg/mL (≈ 31.4 µM); in the assay with Serratia marcescens, 0.25 µg/mL (≈ 0.491 µM). Also, the MIC in the assay on Streptococcus pyogenes came out at 0.015 µg/mL (≈ 0.0295 µM); in the assay with Staphylococcus aureus [10] it was 4 µg/mL (≈ 7.86 µM).
As to `CO/N=C(\C(=O)N[C@@H]1C(=O)N2C(C(=O)[O-])=C(C[n+]3ccc4[nH]c(C)nc4c3)CS[C@H]12)c1csc(N)n1`, the MIC in the assay with Streptococcus pneumoniae was determined as 0.008 µg/mL (≈ 0.0151 µM); with Staphylococcus aureus [1], 2 µg/mL (≈ 3.78 µM); with Escherichia coli [2], 0.008 µg/mL (≈ 0.0151 µM); with Enterobacter cloacae [4], 8 µg/mL (≈ 15.1 µM); in the assay on Enterococcus faecium it was 128 µg/mL (≈ 242 µM); in the assay on Pseudomonas aeruginosa [5], 2 µg/mL (≈ 3.78 µM). Further, the MIC in the assay with Pseudomonas aeruginosa [6] came to 8 µg/mL (≈ 15.1 µM); in the assay with Klebsiella pneumoniae [7] it was 0.008 µg/mL (≈ 0.0151 µM); with Escherichia coli [8] it was 0.008 µg/mL (≈ 0.0151 µM); in the assay on Klebsiella pneumoniae [9], 2 µg/mL (≈ 3.78 µM); in the assay with Streptococcus pyogenes, 0.008 µg/mL (≈ 0.0151 µM); in the assay with Staphylococcus aureus [10] it was 8 µg/mL (≈ 15.1 µM).
Consider `C=Cc1sc[n+](CC2=C(C(=O)[O-])N3C(=O)[C@@H](NC(=O)/C(=N\OC)c4csc(N)n4)[C@H]3SC2)c1C`, for which the MIC turned out to be 0.06 µg/mL (≈ 0.115 µM) in the assay on Streptococcus pneumoniae; 2 µg/mL (≈ 3.84 µM) with Staphylococcus aureus [1]; 0.03 µg/mL (≈ 0.0576 µM) in the assay with Escherichia coli [2]; 0.25 µg/mL (≈ 0.48 µM) in the assay on Enterobacter cloacae [3]; 4 µg/mL (≈ 7.68 µM) with Enterobacter cloacae [4]; 32 µg/mL (≈ 61.5 µM) in the assay with Enterococcus faecium. Besides, the MIC in the assay with Pseudomonas aeruginosa [5] was 16 µg/mL (≈ 30.7 µM); in the assay on Pseudomonas aeruginosa [6], 32 µg/mL (≈ 61.5 µM); in the assay on Klebsiella pneumoniae [7] it was 0.06 µg/mL (≈ 0.115 µM); in the assay with Escherichia coli [8], 0.06 µg/mL (≈ 0.115 µM); in the assay on Klebsiella pneumoniae [9], 4 µg/mL (≈ 7.68 µM); in the assay on Serratia marcescens, 0.25 µg/mL (≈ 0.48 µM). Moreover, the values for the MIC in the assay on Streptococcus pyogenes and in the assay on Staphylococcus aureus [10] were 0.03 µg/mL (≈ 0.0576 µM) and 4 µg/mL (≈ 7.68 µM), respectively.
Take `CO/N=C(\C(=O)N[C@@H]1C(=O)N2C(C(=O)[O-])=C(C[n+]3ccc4scnc4c3)CS[C@H]12)c1csc(N)n1`: the MIC is 0.015 µg/mL (≈ 0.0282 µM) in the assay on Streptococcus pneumoniae; 1 µg/mL (≈ 1.88 µM) in the assay with Staphylococcus aureus [1]; 8 µg/mL (≈ 15 µM) with Enterobacter cloacae [4]; 1 µg/mL (≈ 1.88 µM) in the assay with Pseudomonas aeruginosa [5]; 4 µg/mL (≈ 7.52 µM) in the assay on Pseudomonas aeruginosa [6]; 0.015 µg/mL (≈ 0.0282 µM) in the assay with Klebsiella pneumoniae [7]. The MIC in the assay on Escherichia coli [8] came to 0.015 µg/mL (≈ 0.0282 µM); with Klebsiella pneumoniae [9], 4 µg/mL (≈ 7.52 µM); with Streptococcus pyogenes, 0.015 µg/mL (≈ 0.0282 µM); in the assay on Staphylococcus aureus [10], 8 µg/mL (≈ 15 µM).
`CO/N=C(\C(=O)N[C@@H]1C(=O)N2C(C(=O)[O-])=C(C[n+]3ccsc3)CS[C@H]12)c1csc(N)n1`: the MIC in the assay on Streptococcus pneumoniae worked out at 0.125 µg/mL (≈ 0.26 µM); in the assay on Staphylococcus aureus [1], 4 µg/mL (≈ 8.32 µM); with Escherichia coli [2] it was 0.125 µg/mL (≈ 0.26 µM); in the assay on Enterobacter cloacae [3], 0.5 µg/mL (≈ 1.04 µM); in the assay on Enterobacter cloacae [4], 32 µg/mL (≈ 66.6 µM); with Enterococcus faecium it was 64 µg/mL (≈ 133 µM). For the same molecule, the MIC is 32 µg/mL (≈ 66.6 µM) in the assay with Pseudomonas aeruginosa [5]; 16 µg/mL (≈ 33.3 µM) with Pseudomonas aeruginosa [6]; 0.125 µg/mL (≈ 0.26 µM) with Klebsiella pneumoniae [7]; 0.125 µg/mL (≈ 0.26 µM) in the assay on Escherichia coli [8]; 8 µg/mL (≈ 16.6 µM) with Klebsiella pneumoniae [9]; 0.25 µg/mL (≈ 0.52 µM) with Serratia marcescens. Besides, the MIC in the assay with Streptococcus pyogenes was found to be 0.125 µg/mL (≈ 0.26 µM); in the assay with Staphylococcus aureus [10], 8 µg/mL (≈ 16.6 µM).
Turning to `CO/N=C(\C(=O)N[C@@H]1C(=O)N2C(C(=O)[O-])=C(C[n+]3ccc4[nH]c(-c5cccs5)nc4c3)CS[C@H]12)c1csc(N)n1`, the MIC was 0.008 µg/mL (≈ 0.0134 µM) in the assay on Streptococcus pneumoniae; 2 µg/mL (≈ 3.35 µM) in the assay on Staphylococcus aureus [1]; 0.5 µg/mL (≈ 0.838 µM) in the assay on Enterobacter cloacae [3]; 128 µg/mL (≈ 215 µM) in the assay on Enterococcus faecium; 128 µg/mL (≈ 215 µM) with Pseudomonas aeruginosa [6]; 0.015 µg/mL (≈ 0.0251 µM) in the assay with Klebsiella pneumoniae [7]. The MIC in the assay on Klebsiella pneumoniae [9] was determined as 4 µg/mL (≈ 6.7 µM); in the assay on Serratia marcescens, 1 µg/mL (≈ 1.68 µM); in the assay with Streptococcus pyogenes it was 0.008 µg/mL (≈ 0.0134 µM); in the assay on Staphylococcus aureus [10] it was 8 µg/mL (≈ 13.4 µM).
Take `CO/N=C(\C(=O)N[C@@H]1C(=O)N2C(C(=O)[O-])=C(C[n+]3csc(CCOC(C)=O)c3C)CS[C@H]12)c1csc(N)n1`: the MIC is 0.015 µg/mL (≈ 0.0258 µM) in the assay with Streptococcus pneumoniae; 2 µg/mL (≈ 3.44 µM) with Staphylococcus aureus [1]; 0.03 µg/mL (≈ 0.0517 µM) in the assay with Escherichia coli [2]; 0.125 µg/mL (≈ 0.215 µM) in the assay on Enterobacter cloacae [3]; 2 µg/mL (≈ 3.44 µM) in the assay with Enterobacter cloacae [4]; 32 µg/mL (≈ 55.1 µM) with Enterococcus faecium. The MIC amounted to 32 µg/mL (≈ 55.1 µM) with Pseudomonas aeruginosa [5]; 64 µg/mL (≈ 110 µM) in the assay on Pseudomonas aeruginosa [6]; 0.015 µg/mL (≈ 0.0258 µM) with Klebsiella pneumoniae [7]; 0.03 µg/mL (≈ 0.0517 µM) in the assay on Escherichia coli [8]; 8 µg/mL (≈ 13.8 µM) with Klebsiella pneumoniae [9]; 0.125 µg/mL (≈ 0.215 µM) in the assay on Serratia marcescens. Further, the MIC was determined as 0.015 µg/mL (≈ 0.0258 µM) in the assay with Streptococcus pyogenes and 4 µg/mL (≈ 6.89 µM) with Staphylococcus aureus [10].

The values are drawn from ChEMBL document CHEMBL1124865, “Synthesis and biological evaluation of a series of parenteral 3'-quaternary ammonium cephalosporins” (J Med Chem, 1990).
